As a reminder, the IC50 is the concentration that inhibits the measured activity by half.

From ChEMBL document CHEMBL1145485, “Immunomodulatory peptide from cystatin, a natural cysteine protease inhibitor, against leishmaniasis as a model macrophage disease” (Antimicrob Agents Chemother, 2007) come the findings set out here.

Test [1] concerns Leishmania donovani. The experiment in a line: Reversal of antileishmanial activity against Leishmania donovani MHOM/IN/1983 infected BALB/c mouse peritoneal macrophages in presence of 2-amino-5,6-dihydro-6-methyl-4H-1,3-thiazine. It is filed as functional, organism-based.
Test [2] relates to Leishmania donovani. The experiment in a line: Reversal of antileishmanial activity against Leishmania donovani MHOM/IN/1983 infected BALB/c mouse peritoneal macrophages in presence of anti-peptide antibody. The class given is functional, organism-based.
In test [3] the test system is Leishmania donovani. Put plainly: Antileishmanial activity against Leishmania donovani AG83 infected BALB/c mouse assessed as reduction of spleen burden at 0.5 mg/kg/day, iv in presence of IFN-gamma after 45 days. The class given is functional. On the set-up: scale not given: the % may be the effect or the level left.
Test [4] relates to Macrophage. Put plainly: Increase in NO release in BALB/c mouse peritoneal macrophages upto 1 uM. It is filed as functional, cell-based.
The subject of test [5] is Leishmania donovani. The experiment in a line: Antileishmanial activity against Leishmania donovani MHOM/IN/1983 infected BALB/c mouse peritoneal macrophages in presence of IFN-gamma. The class given is functional, organism-based.
Test [6] has as its system Macrophage. The experiment in a line: Reversal of increase in NO release in BALB/c mouse peritoneal macrophages upto 1 uM in presence of anti-peptide antibody. It is filed as functional, cell-based.
The subject of test [7] is Leishmania donovani. The experiment in a line: Antileishmanial activity against Leishmania donovani AG83 infected BALB/c mouse assessed as reduction of liver burden at 0.5 mg/kg/day, iv in presence of IFN-gamma after 45 days. It is filed as functional. On the set-up: scale not given: the % may be the effect or the level left.

Calls of active or inactive are those of the source. The calls are words filed in the database; no cut-off is given here.

H-PVPVDENDEG-OH: the result in test [1], in test [2], in test [4] and in test [6] was Active. The values for the Activity in test [3] and in test [7] were 95% and 93%, respectively. Besides, the IC50 in test [5] turned out to be 0.52 µg/mL.
